ChEMBL document CHEMBL3886367, “Substituted pyridine compound” (2015)

target: T1, Cholesteryl ester transfer protein (Homo sapiens, UniProt P11597); test: CETP Inhibition Assay: A recombinant human CETP protein (manufactured by Roar Biomedical Inc.; 4.5 ng), the acceptor lipoprotein described in (2) above (32.5 ug) and 5,5'-dithio-bis-(2-nitrobenzoic acid) (7 mM, 15 ul) were taken in a 96 well plate and the total amount of the mixture was adjusted to 48.5 ul with the PBS solution. The test compound [DMSO solution (concentration: 0.15, 0.5, 1.5, 5, 15, 50, 150 and 500 uM; 1.5 ul] was added to each well and the mixture was incubated in a thermostatic bath at 37° C. for 60 minutes. The reconstituted HDL (50 ul) described in (1) above was added to each well and the mixture was reacted in a thermostatic bath at 37° C. for 60 minutes. The 96 well plate was moved onto ice and a precipitation reagent [a mixed solution of magnesium chloride (60 mM) and 0.1% dextran sulfate [1/1 (v/v)]; 15 ul] was added to each well, and then the mixture was allowed to stand on ice for 15 minutes.
T1 sequence (P11597 whole entry): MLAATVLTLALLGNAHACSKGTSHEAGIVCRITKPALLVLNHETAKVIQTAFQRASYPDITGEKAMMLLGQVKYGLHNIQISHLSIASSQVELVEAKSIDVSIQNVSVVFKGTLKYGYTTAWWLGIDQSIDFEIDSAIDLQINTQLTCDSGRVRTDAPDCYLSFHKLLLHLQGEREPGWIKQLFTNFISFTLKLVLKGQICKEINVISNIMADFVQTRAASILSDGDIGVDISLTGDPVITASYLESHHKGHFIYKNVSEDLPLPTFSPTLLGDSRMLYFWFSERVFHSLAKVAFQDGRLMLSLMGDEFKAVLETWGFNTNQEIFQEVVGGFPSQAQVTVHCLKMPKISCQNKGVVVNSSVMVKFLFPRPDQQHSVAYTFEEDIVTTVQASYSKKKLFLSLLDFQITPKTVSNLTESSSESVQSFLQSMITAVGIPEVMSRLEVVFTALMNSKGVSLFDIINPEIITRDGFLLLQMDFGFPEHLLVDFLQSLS

For `CC1(C)Cc2nc(C3CCN(c4ncc(OCCO)cn4)CC3)c([C@@H](F)c3ccc(C(F)(F)F)cc3)c(C3CCC(F)(F)CC3)c2[C@@H](O)C1`, which IC50 is on record?
The IC50 was 0.037 µM.

Which IC50 does the source give for `CC1(C)Cc2nc(C3CCN(c4ncc(N5CCS(=O)(=O)CC5)cn4)CC3)c([C@@H](F)c3ccc(C(F)(F)F)cc3)c(C3CCC(F)(F)CC3)c2[C@@H](O)C1` here?
Its IC50 is 0.049 µM.

Which IC50 does the source give for `CCOc1cnc(N2CCC(c3nc4c(c(C5CCC(F)(F)CC5)c3[C@@H](F)c3ccc(C(F)(F)F)cc3)[C@@H](O)CC(C)(C)C4)CC2)nc1` (single isomer, unassigned) here?
Its IC50 is 0.092 µM.

How did the IC50 turn out when `CC1(C)Cc2nc(C3CCN(c4ncc(Br)cn4)CC3)c([C@@H](F)c3ccc(C(F)(F)F)cc3)c(C3CCC(F)(F)CC3)c2[C@@H](O)C1` (single isomer, unassigned) was run?
Its IC50 is 0.15 µM.
